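A five-concentration, 48-hour dose response in 96-well plates underlies each endpoint, interpolated linearly between surrounding concentrations. The concentration for 50% growth inhibition is given as GI50. TGI is the concentration that stops growth completely.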
Tests used:
Assay in all cases: NCI-60 cell line screen, 48 h
SN12C renal = system: SN12C renal
LOX IMVI melanoma = system: LOX IMVI melanoma
RPMI-8226 leukemia = system: RPMI-8226 leukemia
CCRF-CEM leukemia = system: CCRF-CEM leukemia
EKVX NSCLC = system: EKVX NSCLC
UO-31 renal = system: UO-31 renal
OVCAR-4 ovarian = system: OVCAR-4 ovarian
PC-3 prostate = system: PC-3 prostate
MCF7 breast = system: MCF7 breast
HS 578T breast = system: HS 578T breast

Row | Structure (SMILES) | TGI (SN12C renal) [µM] | TGI (LOX IMVI melanoma) [µM] | TGI (RPMI-8226 leukemia) [µM] | TGI (CCRF-CEM leukemia) [µM] | TGI (EKVX NSCLC) [µM] | GI50 (UO-31 renal) [µM] | TGI (UO-31 renal) [µM] | GI50 (OVCAR-4 ovarian) [µM] | TGI (OVCAR-4 ovarian) [µM] | GI50 (SN12C renal) [µM] | GI50 (LOX IMVI melanoma) [µM] | GI50 (RPMI-8226 leukemia) [µM] | GI50 (CCRF-CEM leukemia) [µM] | GI50 (EKVX NSCLC) [µM] | GI50 (PC-3 prostate) [µM] | TGI (PC-3 prostate) [µM] | GI50 (MCF7 breast) [µM] | TGI (MCF7 breast) [µM] | GI50 (HS 578T breast) [µM] | TGI (HS 578T breast) [µM]
1 | COC(=O)C(Cc1cc(OC)c(OC)c(OC)c1)C(=O)OC | > 320 | > 320 | > 320 | > 320 | > 320 |  |  |  |  |  |  |  |  |  |  |  |  |  |  | 
2 | N.N.N.N.N.[Co+3].[I-].[N-]=[N+]=[N-] | > 100 | > 100 | > 100 | > 100 | > 100 | > 100 | > 100 | > 100 | > 100 | > 100 | > 100 | 35.5 | > 100 | > 100 |  |  |  |  |  | 
3 | N#CCCN(c1ccc(C=Nc2ccccc2)cc1)S(=O)(=O)c1ccccc1 | > 100 |  | > 100 | > 100 | > 100 |  | > 100 |  | > 100 |  |  |  |  |  |  |  |  |  |  | 
4 | N#Cc1cccc2c1Nc1ccccc1S2 | > 100 | > 100 | > 100 | > 100 | > 100 |  | > 100 |  | > 100 |  |  |  |  |  |  |  |  |  |  | 
5 | CN1c2ccccc2N(C(=O)c2ccc([N+](=O)[O-])cc2)C(CC(=O)O)c2cccn21 (stereo unspecified) | > 100 | > 100 | > 100 | > 100 | > 100 |  | > 100 |  | > 100 |  |  |  |  |  |  |  |  |  |  | 
6 | CCN(CCCN(C)C)Cc1cc(I)cc(C)c1O | > 100 | 34.6 | 34 |  | > 100 | 35.6 | > 100 | 48.7 | > 100 | 59.9 | 18.3 | 15.1 |  | 26.5 | 21.5 | 65.8 | 17.4 | 35.8 | 15.3 | 33.1
7 | O=S(=O)(NCCCNc1nccc(-c2c(-c3ccc(O)cc3)nc3sccn23)n1)c1ccc(F)cc1 | > 100 | 5.44 | 4.72 |  | 9.02 | 2.33 | 7.3 | 3.36 | 9.92 | 1.84 | 0.567 | 1.58 |  | 2.91 | 3.11 | 29 | 2.16 | 5.91 | 2.8 | 6.99
8 | COC(=O)CCC(NC(=S)N/N=C(\C)c1cnc2ccccc2n1)C(=O)OC (stereo unspecified) | > 100 | 66.3 | 36.8 | 15.7 | > 100 |  | > 100 |  | > 100 |  |  |  |  |  |  |  |  |  |  | 
9 | Cn1c2c(c3ccccc31)CCN(CCCCN1CCCCC1)C2=O | > 100 |  | > 100 | > 100 | > 100 |  | > 100 |  | > 100 |  |  |  |  |  |  |  |  |  |  | 
10 | CCOC(=O)c1ccc(NC(=O)Nc2nncs2)cc1 | 16.1 | 7.67 | 10.2 | > 52.7 |  | 1.48 | 28.7 | 0.916 | 21.5 | 0.662 | 0.485 | 0.499 | 0.23 |  | 0.273 | 24.2 | 0.116 | > 32.9 | 0.297 | 47.4
